According to US12637487B2 (priority 2017, dated 2026):
Entries after “also recorded” stand apart in the source; their conditions may differ.

Tests used:
[1] = test system: virus; assay: Antiviral effect of AA011 and VK021 alone; format: cell-based
[2] = at 1000 μM
[3] = test system: Hepatitis C virus (HCV type 2a, JFH1-Luc virus strain); assay: MD36792 experiment against hepatitis C virus (Rluc reporter, Huh7.5.1 cells); format: cell-based
[4] = test system: ICR mice; assay: Acetic acid-induced twisting (writhing) model, analgesic effect; format: in vivo; conditions: for Twisting Number Mean: 1 hour before 0.8% acetic acid i.p., 10 mice; for analgesic effect: acetic acid-induced model, mice
Method: Experimental method: Animals were adaptively fed for 5 days, and the body weight of the mice was weighed. […] The mice assigned to MD36792 group and the positive control group were given the corresponding drugs. After 1 hour of administration, the mice in each group were intraperitoneally injected with 0.8% acetic acid (0.2 mL/head). The twisting number of the mice were observed and recorded within 15 minutes.

[5] = test system: Human Immunodeficiency Virus (HIV); assay: MD36792 experiments against human immunodeficiency virus (MT-4 cell protection); format: cell-based; conditions: MT-4 cells, LAI virus
Method: • 1. […] Cell: MT4 cells. • 3. Virus: Human Immunodeficiency Virus (HIV). • 4. Experimental reagents: RPMI-1640 medium, CellTiter-Glo detection kit (Promega) and other experimental reagents.
Experimental principle: MT-4 cell protection experiments were used to detect compounds against viruses.
Experimental steps: A 3-fold diluted drug was added to a 96-well plate, which incubates the LAI virus and MT-4 cells and inoculates it into the well plate. After culture, when the virus infects the control wells, a significant CPE appears. Reagent CellTiter-Glo was added and mixed, then the chemiluminescence signal is to be detected.
The experiment set the cell control (uninfected cell control), virus control, and positive drug control (Zidovudine, AZT).

[6] = test system: Hepatitis B virus (HBV); assay: MD36792 experiment against hepatitis B virus (HBeAg/HBsAg ELISA, HepAD38 cells); format: cell-based; conditions: 72 hours, from 333 μM
[7] = test system: Ebola virus; format: cell-based
[8] = test system: HBV patients; assay: Dicycloplatin alone in hepatitis B patients; format: in vivo, human; conditions: 12 hepatitis B patients, 1-3 months
[9] = test system: patients with hepatitis C; assay: Dicycloplatin alone in hepatitis C patients; format: in vivo, human; conditions: 9 patients with hepatitis C, 1-3 months
[10] = test system: HIV-infected individuals; set-up: species or system human; conditions: in vivo
[11] = test system: Ebola virus infected people; format: in vivo, human; conditions: 20 Ebola-infected patients (Africa), dicycloplatin alone i.v., 1-3 weeks
[12] = test system: cancer patients; assay: Effect of dicycloplatin on pain in cancer patients (Table 5); format: in vivo, human; conditions: for pain, 5th day / pain, 17th day / pain, 31st day, then stop taking: 150 mg i.v. drip once every two days; for pain, 60th-90th (without using DCP ): after stopping
Method: Among cancer patients, it is suitable especially to patients with advanced liver cancer, kidney cancer, bone metastases, brain metastases and bone cancer. […] Some patients stopped using dicycloplatin after a certain course of dicycloplatin treatment, and no pain occurred again.
Dose of the above cancer patients is taken once every two days, 150 mg/5% glucose aqueous solution is dripped intravenously.

[13] = test system: tumor patients; assay: Effect of dicycloplatin on tumor-induced tissue edema and inflammation; format: in vivo, human
[14] = test system: HCV virus; assay: In vitro efficacy of MD36792 and combination with AA011 and VK021 on HCV virus; format: cell-based
[15] = test system: cells; assay: Toxicity to the cells in the HCV combination study; format: cell-based; conditions: toxic CC50 to the cells; start concentration 200 μg/ml MD36792, 4 X dilution
[16] = at 1000 μM and 250 μM concentration
[17] = Lung cancer to bone metastasis 5 cases
[18] = Lung cancer to brain metastasis 2 cases

C[C@@]1(O)[C@H](O)[C@@H](CO)O[C@H]1n1ccc(N)nc1=O [2'CMC, reference compound]
antiviral effect ([1]; positive drug, better as the dose increases): good antiviral effect

N[C@@H](CCC(=O)N[C@@H](CS)C(=O)NCC(=O)O)C(=O)O [AA011, glutathione]
antiviral effect [1, 16]: certain antiviral effect
cytotoxicity [2]: no obvious cytotoxicity

NC(=O)c1ncn([C@@H]2O[C@H](CO)[C@@H](O)[C@H]2O)n1 [Ribavirin, reference compound]
inhibitory effect on HCV [3]: significant inhibitory effect

COc1cc2c(cc1OC)[C@@H]1Cc3ccc(OC)c(OC)c3CN1CC2 [Rotundine, reference compound]
Twisting Number Mean ([4]; 100 mg/kg, counted within 15 minutes): 2.8
number of writhing compared with the model group ([4]; 100 mg/kg, P=0.000): statistically significantly suppressed
analgesic effect [4]: significant analgesic effects

O=C1O[C@H]([C@@H](O)CO)C(O)=C1O [VK021, vitamin C]
antiviral effect [1, 16]: certain antiviral effect

Cc1cn([C@H]2C[C@H](N=[N+]=[N-])[C@@H](CO)O2)c(=O)[nH]c1=O [zidovudine, Zidovudine, reference compound]
inhibitory effect on HIV infection [5]: significant inhibitory effect

Dicycloplatin [MD36792]
inhibitory effect on HCV [3]: no inhibitory effect
EC50 ([3]; 72 hours, read-out: EC50 (50% inhibition) of HCV): 121 µM
inhibitory effect on the expression of HBeAg (e antigen) of HBV [6]: no inhibitory effect
inhibitory effect on the expression of HBsAg (surface antigen) of HBV [6]: no inhibitory effect
inhibitory effect on HIV infection [5]: no inhibitory effect
inhibitory effect on Ebola virus infection [7]: no inhibitory effect
virus index ([8]; dicycloplatin alone 150 mg once every two days (i.v. drip or oral)): None of the patients showed a downward trend
liver function ([8]; dicycloplatin alone): did not improve
virus index ([9]; dicycloplatin alone 150 mg once every two days): None of the patients showed a downward trend
liver function ([9]; dicycloplatin alone): did not improve
liver function [10]: did not improve
viral index ([10]; po): none showed a downward trend
control or remission [11]: without any control or remission
virus index [11]: None of the patients showed a downward trend
pain, 5th day ([12]; Bone cancer 3 cases): Pain gone
pain, 17th day ([12]; Bone cancer 3 cases): No pain
pain, 31st day, then stop taking ([12]; Bone cancer 3 cases): No pain
pain, 60th-90th (without using DCP ) ([12]; Bone cancer 3 cases): No pain
pain, 5th day ([12]; Kidney cancer 1 case): Pain relieved
pain, 17th day ([12]; Kidney cancer 1 case): Pain gone
pain, 31st day, then stop taking ([12]; Kidney cancer 1 case): No pain
pain, 60th-90th (without using DCP ) ([12]; Kidney cancer 1 case): No pain
pain, 5th day ([12]; Liver cancer 5 cases): Pain gone
pain, 17th day ([12]; Liver cancer 5 cases): No pain
pain, 31st day, then stop taking ([12]; Liver cancer 5 cases): No pain
pain, 60th-90th (without using DCP ) ([12]; Liver cancer 5 cases): No pain
pain, 5th day [12, 17]: Pain gone
pain, 17th day [12, 17]: No pain
pain, 31st day, then stop taking [12, 17]: No pain
pain, 60th-90th (without using DCP ) [12, 17]: No pain
pain, 5th day [12, 18]: Pain gone
pain, 17th day [12, 18]: No pain
pain, 31st day, then stop taking [12, 18]: No pain
pain, 60th-90th (without using DCP ) [12, 18]: No pain
treatment of pain caused by cancer ([12]; cancer patients, dicycloplatin injection or oral as the only treatment): significant effect; also recorded: significant efficacy
hepatic tissue edema ([13]; liver cancer patients, infusion or oral administration for a period of time): significantly disappeared or reduced
tissue edema in the brain caused by cancer metastasis ([13]; lung cancer patients with brain metastases, oral or injection, one to two weeks): basically eliminated
SI (selection index of the antiviral effect) [14]: 4.44
EC50 ([14]; start concentration 200 μg/ml MD36792, 4 X dilution): 15.62 µg/mL
CC50 [15]: 69.4 µg/mL
dose relation of analgesic effects ([4]; 10, 20, 40 mg/kg): dose-independent
Twisting Number Mean ([4]; High dose 40 mg/kg, within 15 minutes): 8.7
Twisting Number Mean ([4]; Low dose 10 mg/kg, within 15 minutes): 15.2
Twisting Number Mean ([4]; Middle dose 20 mg/kg, within 15 minutes): 14.8
analgesic effect [4]: significant analgesic effects
analgesic effect ([4]; listed as dicycloplatin): significant analgesic effect
number of writhing compared with the model group ([4]; high-dose group (40 mg/kg), P=0.009): statistically significantly suppressed
